Laboratory results published in ChEMBL document CHEMBL3297706, “Design, synthesis and evaluation of phenethylaminoheterocycles as K(v)1.5 inhibitors” (Bioorg Med Chem Lett, 2014).
Calls of active or inactive are those of the source. The calls are words filed in the database; no cut-off is given here.

Tests used:
[1] = Permeability of the compound by PAMPA; type: ADME; conditions: read-out: permeability
[2] = biological target: T1, Potassium voltage-gated channel subfamily A member 5 (Homo sapiens, UniProt P22460); assay: Inhibition of human Kv1.5 expressed in mouse L929 cells assessed as inhibition of current; type: cell-based
T1 sequence (P22460 whole entry): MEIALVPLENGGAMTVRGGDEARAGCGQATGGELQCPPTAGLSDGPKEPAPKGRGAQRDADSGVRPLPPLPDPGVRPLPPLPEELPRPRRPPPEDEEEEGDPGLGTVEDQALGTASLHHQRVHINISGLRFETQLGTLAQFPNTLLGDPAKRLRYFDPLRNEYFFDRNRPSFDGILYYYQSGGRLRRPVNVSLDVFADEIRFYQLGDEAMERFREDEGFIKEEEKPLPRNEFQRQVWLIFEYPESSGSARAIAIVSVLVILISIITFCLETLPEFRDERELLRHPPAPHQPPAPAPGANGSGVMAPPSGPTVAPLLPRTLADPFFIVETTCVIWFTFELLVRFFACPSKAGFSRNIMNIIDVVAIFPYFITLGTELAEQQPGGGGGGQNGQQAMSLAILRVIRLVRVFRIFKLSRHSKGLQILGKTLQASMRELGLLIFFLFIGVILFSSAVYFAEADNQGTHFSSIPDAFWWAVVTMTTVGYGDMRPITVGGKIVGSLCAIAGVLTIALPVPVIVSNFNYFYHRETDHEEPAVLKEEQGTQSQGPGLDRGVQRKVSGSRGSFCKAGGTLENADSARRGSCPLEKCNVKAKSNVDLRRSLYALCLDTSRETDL

hERG (KCNH2) = hERG (KCNH2) (Homo sapiens, UniProt Q12809); assay: Inhibition of human ERG at 10 uM
hERG (KCNH2), sequence (Q12809 whole entry): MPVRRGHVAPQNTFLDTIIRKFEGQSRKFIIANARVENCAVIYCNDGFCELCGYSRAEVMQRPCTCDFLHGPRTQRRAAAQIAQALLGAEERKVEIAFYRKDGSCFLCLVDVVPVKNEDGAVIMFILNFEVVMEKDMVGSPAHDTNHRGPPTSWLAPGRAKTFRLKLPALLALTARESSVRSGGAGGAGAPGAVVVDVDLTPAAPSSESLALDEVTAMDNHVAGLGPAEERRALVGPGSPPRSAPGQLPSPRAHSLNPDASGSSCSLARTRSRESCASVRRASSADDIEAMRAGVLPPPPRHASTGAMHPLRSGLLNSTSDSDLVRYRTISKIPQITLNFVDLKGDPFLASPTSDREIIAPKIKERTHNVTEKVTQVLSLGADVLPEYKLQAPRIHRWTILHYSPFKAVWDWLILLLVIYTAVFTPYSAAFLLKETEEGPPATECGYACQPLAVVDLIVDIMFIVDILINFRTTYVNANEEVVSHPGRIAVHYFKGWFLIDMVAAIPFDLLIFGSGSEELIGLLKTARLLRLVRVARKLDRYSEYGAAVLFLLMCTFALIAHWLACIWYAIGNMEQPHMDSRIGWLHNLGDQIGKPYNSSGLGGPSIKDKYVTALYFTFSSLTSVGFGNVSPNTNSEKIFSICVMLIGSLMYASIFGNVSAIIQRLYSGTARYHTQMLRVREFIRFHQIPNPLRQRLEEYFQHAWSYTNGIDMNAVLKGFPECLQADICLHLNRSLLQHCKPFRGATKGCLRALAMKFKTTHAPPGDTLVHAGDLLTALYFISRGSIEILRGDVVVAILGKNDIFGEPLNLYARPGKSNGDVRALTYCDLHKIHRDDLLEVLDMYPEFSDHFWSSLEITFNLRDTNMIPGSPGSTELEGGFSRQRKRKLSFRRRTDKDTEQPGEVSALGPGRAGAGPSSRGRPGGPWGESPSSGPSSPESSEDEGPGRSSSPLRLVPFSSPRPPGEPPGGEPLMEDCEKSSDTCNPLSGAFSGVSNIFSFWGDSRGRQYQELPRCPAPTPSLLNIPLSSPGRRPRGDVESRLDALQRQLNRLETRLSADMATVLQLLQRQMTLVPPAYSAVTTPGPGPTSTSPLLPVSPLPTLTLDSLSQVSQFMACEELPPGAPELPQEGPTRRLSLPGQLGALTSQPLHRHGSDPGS

[3] = Volume of distribution at steady state in Sprague-Dawley rat at 10 umol/kg, via carotid artery by LC-MS method; type: ADME, organism-based; conditions: in vivo, read-out: Vdss
[4] = Clearance in Sprague-Dawley rat at 10 umol/kg, via carotid artery by LC-MS method; type: ADME, organism-based; conditions: in vivo
[5] = Half life in Sprague-Dawley rat at 10 umol/kg, via carotid artery by LC-MS method; type: ADME, organism-based; conditions: in vivo
[6] = biological target: T1, Potassium voltage-gated channel subfamily A member 5; assay: Inhibition of human Kv1.5 expressed in mouse L929 cells assessed as inhibition of current at 0.3 uM; type: cell-based
Oryctolagus cuniculus [7] = assay: Anti-atrial fibrillation in rabbit assessed as increase in heart rate at 1 mg/kg; type: functional
Oryctolagus cuniculus [8] = assay: Anti-atrial fibrillation in rabbit assessed as atrial effective refractory period prolongation at 3 mg/kg; type: functional, Cardiac atrium
Oryctolagus cuniculus [9] = assay: Anti-atrial fibrillation in rabbit assessed as decrease in blood pressure at 1 mg/kg; type: functional
[10] = Plasma protein binding in rabbit; type: ADME, cell-free, Oryctolagus cuniculus; conditions: read-out: PPB (converted)
Plasma [11] = assay: Plasma concentration in rabbit at 1 mg/kg; type: ADME, organism-based, Oryctolagus cuniculus; set-up: dose 1 mg/kg; conditions: in vivo
Oryctolagus cuniculus [12] = assay: Anti-atrial fibrillation in rabbit assessed as decrease in blood pressure at 3 mg/kg; type: functional
Oryctolagus cuniculus [13] = assay: Anti-atrial fibrillation in rabbit assessed as increase in heart rate at 3 mg/kg; type: functional
Plasma [14] = assay: Plasma concentration in rabbit at 3 mg/kg; type: ADME, organism-based, Oryctolagus cuniculus; set-up: dose 3 mg/kg; conditions: in vivo
Oryctolagus cuniculus [15] = species: Oryctolagus cuniculus; assay: Anti-atrial fibrillation in rabbit assessed as atrial effective refractory period prolongation; type: functional, organism-based; conditions: Cardiac atrium
Oryctolagus cuniculus [16] = assay: Anti-atrial fibrillation in rabbit assessed as ventricular effective refractory period prolongation at 10 mg/kg; type: functional
Oryctolagus cuniculus [17] = assay: Anti-atrial fibrillation in rabbit assessed as atrial effective refractory period prolongation at 1 mg/kg; type: functional, Cardiac atrium
Oryctolagus cuniculus [18] = assay: Anti-atrial fibrillation in rabbit assessed as atrial effective refractory period prolongation at 10 mg/kg; type: functional, Cardiac atrium
Plasma [19] = assay: Plasma concentration in rabbit at 10 mg/kg; type: ADME, organism-based, Oryctolagus cuniculus; set-up: dose 10 mg/kg; conditions: in vivo
[20] = Permeability across apical to basolateral side in human Caco2 cells; type: ADME, cell-based; conditions: Caco-2, read-out: permeability

COc1cccc2oc(=O)nc(NCC(C)(C)c3ccccc3)c12
Papp [1]: 69.5 ×10⁻⁶ cm/s | IC50 [2]: 197 nM | inhibition at 10 µM (hERG (KCNH2)): 66% | Vd [3]: 0.7 L/kg | clearance [4]: 10 mL/min/kg | half-life [5]: 48 min

COc1ccc2onc(NCC(C)(C)c3ccccc3)c2c1
inhibition [6]: 37%

COc1cccc2c1c(NCC(C)(C)c1ccccc1)nn2C(C)C
inhibition [6]: 42%

CCNC(=O)O[C@H]1CC[C@](CNc2n[nH]c3cccc(OC)c23)(c2ccccc2)CC1
Activity (Oryctolagus cuniculus [7]): 5% | Papp [1]: 67 ×10⁻⁶ cm/s | Activity (Oryctolagus cuniculus [8]): 22% | inhibition in vivo at 1 mg/kg (Oryctolagus cuniculus [9]): 7% | fraction unbound [10]: 0.003 | IC50 [2]: 138 nM | concentration (Plasma [11]): 700 nM | inhibition in vivo at 3 mg/kg (Oryctolagus cuniculus [12]): 17% | Activity (Oryctolagus cuniculus [13]): 16% | concentration (Plasma [14]): 2400 nM | inhibition at 10 µM (hERG (KCNH2)): 52% | Vd [3]: 1.4 L/kg | clearance [4]: 21 mL/min/kg | Activity (Oryctolagus cuniculus [15]): Dose-dependent effect | Activity (Oryctolagus cuniculus [16]): inactive | half-life [5]: 78 min | Activity (Oryctolagus cuniculus [17]): 15%

COc1cccc2nc(Cl)nc(NCC(C)(C)c3ccccc3)c12
IC50 [2]: 73 nM | inhibition at 10 µM (hERG (KCNH2)): 90%

COc1cccc2onc(NCC(C)(C)c3ccccc3)c12
fraction unbound [10]: < 0.001 | IC50 [2]: 43 nM | Vd [3]: 3.7 L/kg | clearance [4]: 22 mL/min/kg | Activity (Oryctolagus cuniculus [16]): <5% | Activity (Oryctolagus cuniculus [18]): <5% | half-life [5]: 144 min | concentration (Plasma [19]): 8.2 µM

COc1cccc2c1C(NCC(C)(C)c1ccccc1)=NC2=O
Papp [1]: 79 ×10⁻⁶ cm/s | Papp A→B [20]: 27 ×10⁻⁶ cm/s | IC50 [2]: 84 nM | inhibition at 10 µM (hERG (KCNH2)): 46% | Vd [3]: 1.1 L/kg | clearance [4]: 35 mL/min/kg | half-life [5]: 48 min

COc1cccc2ncnc(NCC(C)(C)c3ccccc3)c12
IC50 [2]: 118 nM | inhibition at 10 µM (hERG (KCNH2)): 90%

COc1cccc2ccnc(NCC(C)(C)c3ccccc3)c12
IC50 [2]: 22 nM | inhibition at 10 µM (hERG (KCNH2)): 99% | Vd [3]: 14 L/kg | clearance [4]: 124 mL/min/kg | half-life [5]: 108 min

COc1cccc2snc(NCC(C)(C)c3ccccc3)c12
IC50 [2]: 25 nM | inhibition at 10 µM (hERG (KCNH2)): 68% | Vd [3]: 3.9 L/kg | clearance [4]: 28 mL/min/kg | half-life [5]: 108 min

COc1ccc2c(NCC(C)(C)c3ccccc3)noc2c1
Papp A→B [20]: 3.6 ×10⁻⁶ cm/s | inhibition [6]: 21%

CCNC(=O)O[C@H]1CC[C@](CNc2nn(C)c3cccc(OC)c23)(c2ccccc2)CC1
IC50 [2]: 88 nM | inhibition at 10 µM (hERG (KCNH2)): 54% | Vd [3]: 0.6 L/kg | clearance [4]: 8 mL/min/kg | half-life [5]: 84 min

COc1cccc2nc(O)nc(NCC(C)(C)c3ccccc3)c12
Papp [1]: 81.6 ×10⁻⁶ cm/s | IC50 [2]: 23 nM | inhibition at 10 µM (hERG (KCNH2)): 50%

COc1cccc2[nH]nc(NCC(C)(C)c3ccccc3)c12
Papp A→B [20]: 9.4 ×10⁻⁶ cm/s | inhibition [6]: 37%

COc1cccc2c1c(NCC(C)(C)c1ccccc1)nn2C
fraction unbound [10]: < 0.001 | Papp A→B [20]: 2.3 ×10⁻⁶ cm/s | IC50 [2]: 198 nM | concentration (Plasma [11]): 300 nM | inhibition at 10 µM (hERG (KCNH2)): 69% | Vd [3]: 1.7 L/kg | clearance [4]: 12 mL/min/kg | half-life [5]: 126 min | Activity (Oryctolagus cuniculus [17]): 6%

CC(C)(CNc1noc2ccccc12)c1ccccc1
Papp A→B [20]: 11.6 ×10⁻⁶ cm/s | IC50 [2]: 784 nM

COc1cccc2onc(N(C)CC(C)(C)c3ccccc3)c12
IC50 [2]: 187 nM

CCc1cccc2onc(NCC(C)(C)c3ccccc3)c12
IC50 [2]: 219 nM

CC(C)(CNc1noc2cccc(Cl)c12)c1ccccc1
inhibition [6]: 33%

CC(C)(CNc1noc2cccc(O)c12)c1ccccc1
IC50 [2]: 262 nM
